Test systems include CCRF-CEM leukemia; EKVX NSCLC; IGROV1 ovarian; LOX IMVI melanoma; NCI-H460 lung; NCI/ADR-RES ovarian; OVCAR-4 ovarian; RXF 393 renal; SNB-19 CNS; UO-31 renal.
Holding throughout (assay): NCI tumour cell line growth inhibition, 48 h

Among the data in PubChem BioAssay (NCI) are GI50 and TGI values, retold here.

Each structure is given as a SMILES string. “And” between values parts separate entries of the source, which are not always exact repeats. Identical values can stand only once.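 48-hour exposure; five concentrations; linearly interpolated endpoints. The concentration for 50% growth inhibition is given as GI50. The concentration for full growth arrest is given as TGI.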 Some results are limits rather than exact numbers.

For `COC(=O)[C@]12CC[C@@H](C)[C@H](C)[C@@H]1C1=CC[C@@H]3[C@@]4(C)C(C=O)=C[C@@](C)(COC(=O)c5ccco5)C4=CC[C@@]3(C)[C@]1(C)CC2`, the GI50 in the experiment on CCRF-CEM leukemia is 2.87 µM; in the experiment on EKVX NSCLC it was 2.74 µM; in the experiment on IGROV1 ovarian, 4.06 µM; with LOX IMVI melanoma, 1.7 µM; with NCI-H460 lung, 2.66 µM; in the experiment with NCI/ADR-RES ovarian, 4.84 µM. Further, the GI50 in the experiment on OVCAR-4 ovarian is 3.54 µM; in the experiment on RXF 393 renal it was 1.7 µM; with SNB-19 CNS it was 5.12 µM; in the experiment with UO-31 renal, 1.92 µM. Moreover, the TGI in the experiment with CCRF-CEM leukemia came out at 8.73 µM; in the experiment on EKVX NSCLC, 9.17 µM; in the experiment with IGROV1 ovarian, 24.3 µM; in the experiment with LOX IMVI melanoma, 3.15 µM; in the experiment on NCI-H460 lung, 7.61 µM; in the experiment with NCI/ADR-RES ovarian, 26.1 µM. Moreover, the TGI in the experiment with OVCAR-4 ovarian is 22.4 µM; in the experiment with RXF 393 renal it was 3.77 µM; with SNB-19 CNS, more than 100 µM; in the experiment with UO-31 renal, 5.03 µM.

As to `COC(=O)C(Br)(C(=O)OC)C(Br)C(Br)C(Br)c1ccccc1` (stereo not drawn), the GI50 is 2 µM with CCRF-CEM leukemia; 13.9 µM with EKVX NSCLC; 1.06 µM with IGROV1 ovarian; 1.85 µM in the experiment on LOX IMVI melanoma; 17.2 µM in the experiment on NCI-H460 lung; 3.28 µM with NCI/ADR-RES ovarian. In addition, the GI50 was 1.82 µM with OVCAR-4 ovarian, 1.72 µM in the experiment on RXF 393 renal, 14.9 µM in the experiment with SNB-19 CNS and 1.64 µM with UO-31 renal. The TGI in the experiment on CCRF-CEM leukemia came to 7.21 µM; in the experiment on EKVX NSCLC it was 31.9 µM; in the experiment on IGROV1 ovarian, 3.45 µM; in the experiment with LOX IMVI melanoma it was 3.66 µM; with NCI-H460 lung it was 32.3 µM; in the experiment with NCI/ADR-RES ovarian, 9.99 µM. Also, the TGI in the experiment on OVCAR-4 ovarian was 3.96 µM; with RXF 393 renal it was 3.26 µM; with SNB-19 CNS it was 28.2 µM; in the experiment with UO-31 renal, 3.3 µM.

Take `CCN1Cc2c(/C=C/c3ccccc3)nc3ccc(OC)cc3c2N(c2cccc(Cl)c2)C1`: the GI50 is 2.17 µM in the experiment with CCRF-CEM leukemia; 1.79 µM in the experiment on EKVX NSCLC; 1.4 µM in the experiment with IGROV1 ovarian; 1.7 µM with LOX IMVI melanoma; 1.64 µM with NCI-H460 lung; 2.1 µM in the experiment with NCI/ADR-RES ovarian. For the same molecule, the GI50 in the experiment with OVCAR-4 ovarian is 2.8 µM; in the experiment with RXF 393 renal it was 2.07 µM; in the experiment with SNB-19 CNS, 2.13 µM; in the experiment on UO-31 renal, 1.38 µM. Further, the TGI in the experiment with CCRF-CEM leukemia worked out at 5.84 µM; in the experiment on EKVX NSCLC, 3.9 µM; with IGROV1 ovarian it was 3.68 µM; in the experiment on LOX IMVI melanoma, 3.51 µM; with NCI-H460 lung it was 3.27 µM; in the experiment on NCI/ADR-RES ovarian, 5.22 µM. The TGI turned out to be 8.44 µM in the experiment with OVCAR-4 ovarian, 3.69 µM with RXF 393 renal, 5.15 µM in the experiment on SNB-19 CNS and 2.95 µM in the experiment with UO-31 renal.

Regarding `CCCCc1n(Cc2ccc3ccccc3n2)cc[n+]1Cc1ccc2ccccc2c1`, the GI50 in the experiment on CCRF-CEM leukemia is 1.04 µM; in the experiment with EKVX NSCLC, 1.4 µM; in the experiment with IGROV1 ovarian, 0.731 µM; with LOX IMVI melanoma, 0.736 µM; in the experiment on NCI-H460 lung it was 0.917 µM; with NCI/ADR-RES ovarian it was 24.2 µM. Further, the GI50 in the experiment with OVCAR-4 ovarian is 0.262 µM; in the experiment on RXF 393 renal, 1.22 µM; in the experiment on SNB-19 CNS it was 0.605 µM; in the experiment on UO-31 renal, 3.22 µM. In addition, the TGI with CCRF-CEM leukemia is 4.61 µM; with EKVX NSCLC it was 11.8 µM; in the experiment with IGROV1 ovarian it was 2.38 µM; with LOX IMVI melanoma, 1.95 µM; in the experiment on NCI-H460 lung it was 2.95 µM; in the experiment on NCI/ADR-RES ovarian, more than 100 µM. The TGI in the experiment with OVCAR-4 ovarian turned out to be 1.63 µM; in the experiment with RXF 393 renal, 3.16 µM; in the experiment on SNB-19 CNS, 2.12 µM; in the experiment with UO-31 renal, 13.6 µM.

In the case of `COc1ccccc1CNC(=O)/C=C/c1ccc(O)c(O)c1`, the GI50 with CCRF-CEM leukemia is 18.2 µM; with EKVX NSCLC, 48.2 µM; in the experiment on IGROV1 ovarian, 22.9 µM; in the experiment with LOX IMVI melanoma, 26.3 µM; in the experiment with NCI-H460 lung, 45.9 µM; with NCI/ADR-RES ovarian, 66 µM. Also, the GI50 with OVCAR-4 ovarian is 40 µM; in the experiment on RXF 393 renal, 54.9 µM; in the experiment on SNB-19 CNS it was 48.2 µM; with UO-31 renal, 20.5 µM. In addition, the TGI in the experiment on CCRF-CEM leukemia, in the experiment with EKVX NSCLC, in the experiment on IGROV1 ovarian, with LOX IMVI melanoma, in the experiment with NCI-H460 lung and in the experiment on NCI/ADR-RES ovarian was more than 100 µM each time. Besides, the TGI in the experiment on OVCAR-4 ovarian, in the experiment on RXF 393 renal, with SNB-19 CNS and with UO-31 renal was more than 100 µM throughout.

Regarding `Cn1c(=S)c2[nH]c(SCc3cccnc3)nc2n(C)c1=O`, the TGI in the experiment with EKVX NSCLC, with IGROV1 ovarian, with LOX IMVI melanoma, with NCI-H460 lung, with NCI/ADR-RES ovarian and in the experiment on OVCAR-4 ovarian was more than 100 µM in each case. The TGI with RXF 393 renal, in the experiment with SNB-19 CNS and in the experiment on UO-31 renal was more than 100 µM throughout.

Turning to `COc1ccc2c3c1OC1C4(CCC5C(C2)N(CC2CC2)CCC351)OCCO4` (stereo not drawn), the TGI in the experiment with CCRF-CEM leukemia, in the experiment with EKVX NSCLC, in the experiment on IGROV1 ovarian, in the experiment on LOX IMVI melanoma, in the experiment with NCI-H460 lung and with NCI/ADR-RES ovarian was more than 100 µM in each case. Further, the TGI in the experiment with OVCAR-4 ovarian, with RXF 393 renal, with SNB-19 CNS and in the experiment on UO-31 renal was more than 100 µM throughout.

Turning to `CC[C@H](C)C(=O)O[C@H]1C[C@@H](C)C=C2C=C[C@H](C)[C@H](CC[C@@H]3C[C@@H](O)CC(=O)O3)[C@H]21`, the GI50 is 27.4 µM and 13.5 µM in the experiment on CCRF-CEM leukemia; 4.32 µM and 6.61 µM in the experiment with EKVX NSCLC; 3.22 µM and 5.31 µM with IGROV1 ovarian; 0.932 µM with LOX IMVI melanoma; 11.4 µM and 5.59 µM in the experiment with NCI-H460 lung; 2.63 µM and 2.95 µM in the experiment with NCI/ADR-RES ovarian. Further, the GI50 is 10.9 µM and 17.6 µM in the experiment with OVCAR-4 ovarian; 3.48 µM with RXF 393 renal; 11 µM and 4.7 µM in the experiment with UO-31 renal. Besides, the TGI in the experiment on CCRF-CEM leukemia was more than 100 µM; with EKVX NSCLC, more than 100 µM; in the experiment on IGROV1 ovarian, 23.2 µM and 29 µM and > 30 µM; in the experiment with LOX IMVI melanoma, 21.3 µM and 6.82 µM and 7.71 µM; in the experiment with NCI-H460 lung it was more than 100 µM; with NCI/ADR-RES ovarian it was more than 100 µM. Further, the TGI in the experiment with OVCAR-4 ovarian was 61.1 µM and > 55.5 µM and > 30 µM; with RXF 393 renal, 31.8 µM and 13.8 µM and 17.3 µM; in the experiment on UO-31 renal, 80.7 µM and 29.6 µM and 14.2 µM.

As to `COC(=O)C1OC(SCCN)C(O)C(O)C1O` (stereo not drawn), the TGI in the experiment on CCRF-CEM leukemia, in the experiment with EKVX NSCLC, in the experiment with IGROV1 ovarian, with LOX IMVI melanoma, with NCI-H460 lung and in the experiment with NCI/ADR-RES ovarian was more than 100 µM each time. Also, the TGI with OVCAR-4 ovarian, with RXF 393 renal and in the experiment with SNB-19 CNS was more than 100 µM each time.

Take `Fc1cccc(-c2nc(-c3c[nH]c4ncccc34)cs2)c1`: the GI50 in the experiment with CCRF-CEM leukemia is more than 100 µM; with EKVX NSCLC, 2.46 µM; in the experiment on IGROV1 ovarian it was 8.15 µM; in the experiment on LOX IMVI melanoma, more than 100 µM; in the experiment with NCI-H460 lung, 6.59 µM; in the experiment with NCI/ADR-RES ovarian, more than 100 µM. In addition, the results for the GI50 in the experiment with RXF 393 renal, with SNB-19 CNS and in the experiment on UO-31 renal were 23.1 µM, 22.6 µM and 33.4 µM, respectively. The TGI in the experiment with CCRF-CEM leukemia, in the experiment with EKVX NSCLC, in the experiment on IGROV1 ovarian, in the experiment with LOX IMVI melanoma, in the experiment on NCI-H460 lung and with NCI/ADR-RES ovarian was more than 100 µM each time. The values for the TGI with RXF 393 renal, in the experiment with SNB-19 CNS and with UO-31 renal were 90.8 µM, more than 100 µM and more than 100 µM, respectively.

For the molecule `O=C(/C=C/c1cc(O)ccc1O)c1ccc(Cl)cc1`, the GI50 with EKVX NSCLC is 23.4 µM; in the experiment with IGROV1 ovarian, more than 100 µM; in the experiment on LOX IMVI melanoma, 18.4 µM; in the experiment with NCI-H460 lung it was 32.5 µM; in the experiment on NCI/ADR-RES ovarian, 19.6 µM; with RXF 393 renal, more than 100 µM. The results for the GI50 in the experiment with SNB-19 CNS and with UO-31 renal were 36.8 µM and 96.7 µM, respectively. Besides, the TGI is 54.7 µM in the experiment with EKVX NSCLC; more than 100 µM with IGROV1 ovarian; 48.4 µM with LOX IMVI melanoma; more than 100 µM with NCI-H460 lung; 53.9 µM with NCI/ADR-RES ovarian; more than 100 µM in the experiment on RXF 393 renal. In addition, the TGI in the experiment on SNB-19 CNS and with UO-31 renal was more than 100 µM in each case.

On to `Clc1ccc2c(NCCNc3nc(N4CCCCC4)nc4ccccc34)ccnc2c1`, for which the GI50 in the experiment on CCRF-CEM leukemia was 1.99 µM; with EKVX NSCLC, 4.07 µM; in the experiment on IGROV1 ovarian, 2.54 µM; in the experiment on LOX IMVI melanoma, 1.58 µM; with NCI/ADR-RES ovarian it was 3.5 µM; with OVCAR-4 ovarian, 2.81 µM. For the same molecule, the GI50 in the experiment on RXF 393 renal is 1.81 µM; in the experiment with SNB-19 CNS it was 3.06 µM; in the experiment with UO-31 renal it was 1.39 µM. Moreover, the TGI is 45.4 µM in the experiment on CCRF-CEM leukemia; 17.2 µM with EKVX NSCLC; 9.86 µM with IGROV1 ovarian; 3.36 µM in the experiment with LOX IMVI melanoma; more than 100 µM in the experiment on NCI/ADR-RES ovarian; 13.8 µM in the experiment with OVCAR-4 ovarian. Moreover, the figures for the TGI in the experiment with RXF 393 renal, with SNB-19 CNS and in the experiment with UO-31 renal were 3.72 µM, 15.6 µM and 2.79 µM, respectively.
